Laboratory results from patent US7136698B2 (priority 1996, dated 2006).

Experiment: Current density and goserelin flux: constant current electrotransport delivery
Type: in vivo, human
Method: This study was undertaken to evaluate the relationship between current density and drug flux in the transdermal electrotransport delivery of goserelin. The study involved the application of electrotransport devices, applying constant current, to 12 normal male volunteers for a duration of 8 hours.
The two electrotransport treatment regimens in this study differed only in applied current density levels. The electrotransport devices delivered goserelin through the skin from polyvinyl alcohol (PVOH)-based donor hydrogels having a skin-contact surface area of 4 cm^2. The gels contained an aqueous goserelin solution. The current density levels used in this study were […]. After an 8 hour treatment period, the electrotransport devices were removed. The skin site was then washed to remove any residual goserelin. All 12 volunteers received each treatment seven days apart.
For each treatment, seven blood samples were taken over a 24 hour period commencing with the application of current from the electrotransport devices. Serum goserelin concentrations from each patient were used to calculate mean drug flux and the mean total amount of drug delivered.

SMILES: CC(C)C[C@H](NC(=O)[C@@H](COC(C)(C)C)NC(=O)[C@H](Cc1ccc(O)cc1)NC(=O)[C@H](CO)NC(=O)[C@H](Cc1c[nH]c2ccccc12)NC(=O)[C@H](Cc1cnc[nH]1)NC(=O)[C@@H]1CCC(=O)N1)C(=O)N[C@@H](CCCNC(=N)N)C(=O)N1CCC[C@H]1C(=O)NNC(N)=O [goserelin]
- average transdermal goserelin flux (applied current density 50 μA/cm^2, 8 hours): 5.8 µg/h
- average transdermal goserelin flux (applied current density 100 μA/cm^2, 8 hours): 21.6 µg/h
- increase in drug flux (current density rises from 50 to 100 μA/cm^2): almost four-fold increase
